Biological target: T1, Axl (Homo sapiens, UniProt P30530)
T1 construct: endogenous in cells; host or cells: HeLa cells
T1 sequence (P30530 26-894): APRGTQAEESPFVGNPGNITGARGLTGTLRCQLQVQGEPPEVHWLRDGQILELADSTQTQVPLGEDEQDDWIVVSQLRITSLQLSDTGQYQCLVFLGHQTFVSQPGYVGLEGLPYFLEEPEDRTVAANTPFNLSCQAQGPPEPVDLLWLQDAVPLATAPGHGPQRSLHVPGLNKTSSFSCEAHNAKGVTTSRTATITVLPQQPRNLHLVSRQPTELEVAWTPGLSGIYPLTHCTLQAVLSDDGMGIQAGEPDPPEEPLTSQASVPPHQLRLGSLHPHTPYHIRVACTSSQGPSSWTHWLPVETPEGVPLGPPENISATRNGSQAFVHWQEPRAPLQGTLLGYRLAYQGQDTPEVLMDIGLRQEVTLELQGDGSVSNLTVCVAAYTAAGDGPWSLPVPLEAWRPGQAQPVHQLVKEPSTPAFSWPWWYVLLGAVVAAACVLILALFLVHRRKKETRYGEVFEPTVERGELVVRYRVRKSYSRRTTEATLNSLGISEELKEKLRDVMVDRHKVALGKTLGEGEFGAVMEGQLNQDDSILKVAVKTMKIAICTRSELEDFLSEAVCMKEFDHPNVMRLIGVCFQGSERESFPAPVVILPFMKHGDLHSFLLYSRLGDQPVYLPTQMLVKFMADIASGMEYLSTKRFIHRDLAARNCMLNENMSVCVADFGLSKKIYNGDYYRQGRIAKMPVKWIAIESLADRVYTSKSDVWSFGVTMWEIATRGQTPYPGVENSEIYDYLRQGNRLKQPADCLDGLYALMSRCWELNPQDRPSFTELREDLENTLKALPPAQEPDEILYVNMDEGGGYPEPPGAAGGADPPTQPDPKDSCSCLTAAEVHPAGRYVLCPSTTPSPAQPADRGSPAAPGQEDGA
Assay: Phospho-Akt in-cell Western assay
Assay type: cell-based
Settings: Hela cells, stimulated by Axl-antibody cross-linking, phospho-Akt chemiluminescence; Table 1, formula (Ia)
Experimental: Phospho-Akt in-Cell Western Assay
The compounds of the invention were tested in the following assay for their ability to inhibit Axl activity.
• Cell culture plate: 96 well assay plate (Corning 3610), white, clear bottom, tissue-culture treated. • Cells: Hela cells. • Starvation medium: For Axl stimulation: 0.5% FCS (fetal calf serum) in DMEM, plus Axl/Fc (extracellular domain of AXL fused to imunoglobulin Fc region) (R&D, 154-AL) 500 ng/mL. • For EGF (epidermal growth factor) stimulation: 0.5% FCS in DMEM (Dulbecco's modified Eagles medium). • Poly-L-Lysine 0.01% solution (the working solution): 10 μg/ml, dilute In PBS (phosphate buffered saline). • Axl antibody cross-linking: • 1st: Mouse anti-Axl (R&D, MAB154). • 2nd: Biotin-SP-conjugated AffiniPure goat anti-mouse IgG (H+L) (Jackson ImmunoResearch #115-065-003). • Fixing buffer: 4% formaldehyde in PBS. • Wash buffer: 0.1% TritonX-100 in PBS. • Quenching buffer: 3% H2O2, 0.1% Azide in wash buffer, Azide and hydrogen peroxide (H2O2) are added fresh. • Blocking buffer: 5% BSA in TBST (tris buffered saline plus 0.1% Tween 20). • Primary antibody: Rabbit anti-human Phospho-Akt antibody (Cell Signaling 9271): 1×250 diluted in blocking buffer. • Secondary antibody: HRP (horse radish peroxidase)-conjugated Goat anti-Rabbit secondary, stock solution: Jackson ImmunoResearch (Goat anti-Rabbit HRP, #111-035-144) 1:1 diluted in glycerol, store at −20° C. The working solution: 1×2000 dilution of stock in blocking buffer. • Chemiluminescent working solution (Pierce, 37030): SuperSignal ELISA (enzyme linked immunosorbant assay) Pico Chemiluminescent substrate. • Crystal Violet solution: Stock: 2.5% Crystal violet in methanol, filtered and kept at ambient temperature. The working solution: dilute the stock 1:20 with PBS immediately before use. • 10% SDS: working solution: 5% SDS (sodium dodecylsulfate), diluted in PBS Methods: Day 1:
A 96 well TC (tissue culture treated) plate was coated with 10 μg/mL poly-L-Lysine at 37° C. for 30 min, washed twice with PBS, and air-dried for 5 minutes before cells were added. Hela cells were seeded at 10,000 cells/well and the cells were starved in 100 μL starvation medium containing Axl/Fc for 24 hrs.
The cells were pre-treated with test compounds by adding 100 μL of 2× test compound to the starvation medium on the cells. The cells were incubated at 37° C. for 1 hr before stimulation.
The cells were stimulated by Axl-antibody cross-linking as follows: A 5× 1st/2nd Axl antibody mixture was made (37.5 μg/mL 1st/100 μg/mL 2nd) in starvation medium and nutated at 4° C. with thorough mixing for 1-2 hours for clustering. The resulting mix was warmed to 37° C. 50 μL of 5× Axl 1st/2nd of antibody cluster was added to the cells and the cells were incubated at 37° C. for 5 min.
After 5 minutes stimulation, the plate was flicked to remove medium and the plate was tapped onto paper towels. Formaldehyde (4.0% in PBS, 100 μL) was added to fix the cells and the cells were incubated at ambient temperature for 20 min without shaking.
The cells were washed with a plate washer buffer to remove the formaldehyde solution. The plate was flicked to removed excess wash buffer and tapped onto paper towels. Quenching buffer (100 μL) was added to each well and the cells were incubated at ambient temperature for 20 minutes without shaking.
The cells were washed with a plate washer buffer to remove the quenching buffer. Blocking buffer (100 μL) was added and the cells were incubated at ambient temperature for at least an hour with gentle shaking.
The cells were washed with a plate washer buffer and diluted primary antibody (50 μL) was added to each well (blocking buffer was added to the negative control wells instead). The plates were incubated overnight at 4° C. with gentle shaking.
The wash buffer was removed, diluted secondary antibody (100 μL) was added, and the cells were incubated at ambient temperature for 1 hour with gentle shaking. […]

| Structure (SMILES) | IC50 [µM] |
| --- | --- |
| CC(=O)NC1CCc2ccc(Nc3nc(N)n(-c4cc5c(nn4)-c4ccccc4CCC5)n3)cc2CC1 (stereo not drawn) [Compound 1, 1-(6,7-dihydro-5H-benzo[6,7]cyclohepta[1,2-c]pyridazin-3-yl)-N^3-(7-(acetamido)-6,7,8,9-tetrahydro-5H-benzo[7]annulene-2-yl)-1H-1,2,4-triazole-3,5-diamine] | < 1 |
| COC(=O)[C@H]1CCCN1C1CCc2ccc(Nc3nc(N)n(-c4cc5c(nn4)-c4ccccc4CCC5)n3)cc2CC1 (stereo partly drawn) [Compound 2, 1-(6,7-dihydro-5H-benzo[6,7]cyclohepta[1,2-c]pyridazin-3-yl)-N^3-(7-((2R)-2-(methoxycarbonyl)pyrrolidin-1-yl)-6,7,8,9-tetrahydro-5H-benzo[7]annulene-2-yl)-1H-1,2,4-triazole-3,5-diamine] | < 1 |
| Nc1nc(Nc2ccc3c(c2)CCC(N2CCC(F)(F)CC2)CC3)nn1-c1cc2c(nn1)-c1ccccc1CCC2 (stereo not drawn) [Compound 3, 1-(6,7-dihydro-5H-benzo[6,7]cyclohepta[1,2-c]pyridazin-3-yl)-N^3-(7-(4,4-difluoropiperidin-1-yl)-6,7,8,9-tetrahydro-5H-benzo[7]annulene-2-yl)-1H-1,2,4-triazole-3,5-diamine] | 1 to 10 |
| COC(=O)CN(C)C1CCc2ccc(Nc3nc(N)n(-c4cc5c(nn4)-c4ccccc4CCC5)n3)cc2CC1 (stereo not drawn) [Compound 4, 1-(6,7-dihydro-5H-benzo[6,7]cyclohepta[1,2-c]pyridazin-3-yl)-N^3-(7-((methoxycarbonylmethyl)(methyl)amino)-6,7,8,9-tetrahydro-5H-benzo[7]annulene-2-yl)-1H-1,2,4-triazole-3,5-diamine] | < 1 |
| Nc1nc(Nc2ccc3c(c2)CCC(N2CCC[C@@H]2C(=O)O)CC3)nn1-c1cc2c(nn1)-c1ccccc1CCC2 (stereo partly drawn) [Compound 5, 1-(6,7-dihydro-5H-benzo[6,7]cyclohepta[1,2-c]pyridazin-3-yl)-N^3-(7-((2R)-2-(carboxy)pyrrolidin-1-yl)-6,7,8,9-tetrahydro-5H-benzo[7]annulene-2-yl)-1H-1,2,4-triazole-3,5-diamine] | < 1 |
| CCOC(=O)C1CCN(C2CCc3ccc(Nc4nc(N)n(-c5cc6c(nn5)-c5ccccc5CCC6)n4)cc3CC2)CC1 (stereo not drawn) [Compound 6, 1-(6,7-dihydro-5H-benzo[6,7]cyclohepta[1,2-c]pyridazin-3-yl)-N^3-(7-(4-(ethoxycarbonyl)piperidin-1-yl)-6,7,8,9-tetrahydro-5H-benzo[7]annulene-2-yl)-1H-1,2,4-triazole-3,5-diamine] | < 1 |
| Nc1nc(Nc2ccc3c(c2)CCC(N2CCC(C(=O)O)CC2)CC3)nn1-c1cc2c(nn1)-c1ccccc1CCC2 (stereo not drawn) [Compound 7, 1-(6,7-dihydro-5H-benzo[6,7]cyclohepta[1,2-c]pyridazin-3-yl)-N^3-(7-(4-(carboxy)piperidin-1-yl)-6,7,8,9-tetrahydro-5H-benzo[7]annulene-2-yl)-1H-1,2,4-triazole-3,5-diamine] | < 1 |
| CN(CC(=O)O)C1CCc2ccc(Nc3nc(N)n(-c4cc5c(nn4)-c4ccccc4CCC5)n3)cc2CC1 (stereo not drawn) [Compound 8, 1-(6,7-dihydro-5H-benzo[6,7]cyclohepta[1,2-c]pyridazin-3-yl)-N^3-(7-((carboxymethyl)(methyl)amino)-6,7,8,9-tetrahydro-5H-benzo[7]annulene-2-yl)-1H-1,2,4-triazole-3,5-diamine] | 1 to 10 |
| CCOC(=O)CN1CCN(C2CCc3ccc(Nc4nc(N)n(-c5cc6c(nn5)-c5ccccc5CCC6)n4)cc3CC2)CC1 (stereo not drawn) [Compound 9, 1-(6,7-dihydro-5H-benzo[6,7]cyclohepta[1,2-c]pyridazin-3-yl)-N^3-(7-(4-(ethoxycarbonylmethyl)piperazin-1-yl)-6,7,8,9-tetrahydro-5H-benzo[7]annulene-2-yl)-1H-1,2,4-triazole-3,5-diamine] | < 1 |

Reference: patent publication US9173882B2, “Polycyclic heteroaryl substituted triazoles useful as Axl inhibitors” (Rigel Pharmaceuticals, Inc., priority 2008, dated 2015)
